Tests used:
[1] = biological target: PKC-null D1DAR (Rattus norvegicus, UniProt P18901, S259A/S397A/S398A/S417A/S421A); experiment: cAMP accumulation assay, HEK293T cells expressing PKC-null D1DAR; assay type: cell-based; conditions: 1 μM PMA 30 min or 3 μM Gö6983 1 hr
[2] = biological target: WT D1DAR (Rattus norvegicus, UniProt P18901); experiment: cAMP accumulation assay, HEK293T cells expressing WT D1DAR; assay type: cell-based; conditions: 1 μM PMA 30 min or 3 μM Gö6983 1 hr
[3] = system: PKC phosphorylation of the D1DAR; experiment: In situ phosphorylation assay, HEK293T cells expressing the D1DAR; assay type: cell-based, rat; conditions: cells treated 30 min with 1 μM phorbol ester, Fig. 1A

Chain of WT D1DAR (P18901 whole entry): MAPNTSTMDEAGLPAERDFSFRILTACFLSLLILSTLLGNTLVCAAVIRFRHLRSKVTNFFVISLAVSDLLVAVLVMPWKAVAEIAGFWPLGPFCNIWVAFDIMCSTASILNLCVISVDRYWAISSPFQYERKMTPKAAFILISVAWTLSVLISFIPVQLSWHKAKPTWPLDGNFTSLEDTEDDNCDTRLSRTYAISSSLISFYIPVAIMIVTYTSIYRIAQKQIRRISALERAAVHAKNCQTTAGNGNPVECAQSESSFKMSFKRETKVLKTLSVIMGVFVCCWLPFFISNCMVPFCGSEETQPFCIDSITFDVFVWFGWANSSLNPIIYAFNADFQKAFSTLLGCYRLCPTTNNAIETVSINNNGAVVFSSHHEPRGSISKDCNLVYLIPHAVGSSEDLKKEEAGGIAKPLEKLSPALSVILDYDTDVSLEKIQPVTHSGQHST
Chain of PKC-null D1DAR (P18901 whole entry S259A/S397A/S398A/S417A/S421A): as the sequence (P18901 whole entry) above, with S259A, S397A, S398A, S417A, S421A counted along it

COc1ccc2c(c1)c(C1=C(c3c[nH]c4ccccc34)C(=O)NC1=O)cn2CCCN(C)C [Gö6983]
effect of pretreatment on maximal DA-stimulated cAMP accumulation [1]: no longer displays an enhancement of cAMP accumulation
effect of pretreatment on maximal DA-stimulated cAMP accumulation [2]: potentiation of the maximal amount of D1DAR-stimulated cAMP accumulation

CCCCCCCCCCCCCC(=O)O[C@@H]1[C@@H](C)[C@@]2(O)[C@@H](C=C(CO)C[C@]3(O)C(=O)C(C)=C[C@@H]23)[C@@H]2C(C)(C)[C@]12OC(C)=O [PMA, phorbol 12-myristate 13-acetate]
effect of pretreatment on maximal DA-stimulated cAMP accumulation [1]: potentiation of maximal cAMP accumulation
effect of pretreatment on maximal DA-stimulated cAMP accumulation [2]: potentiation of the maximal amount of D1DAR-stimulated cAMP accumulation
D1DAR phosphorylation above basal [3]: robust increase in phosphorylation

CCCC(=O)O[C@@H]1[C@@H](C)[C@@]2(O)[C@@H](C=C(CO)C[C@]3(O)C(=O)C(C)=C[C@@H]23)[C@@H]2C(C)(C)[C@]12OC(=O)CCC [PDBu, phorbol 12,13 dibutyrate]
D1DAR phosphorylation above basal [3]: robust increase in phosphorylation

CCCCCCCCCC(=O)O[C@@H]1[C@@H](C)[C@@]2(O)[C@@H](C=C(CO)C[C@@]3(O)C(=O)C(C)=C[C@@H]23)[C@@H]2C(C)(C)[C@]12OC(=O)CCCCCCCCC [4αPDD, 4α-phorbol-12,13-didecanoate]
D1DAR phosphorylation above basal [3]: inactive

From publication PMC2996484 (Journal of neurochemistry, 2010)
